Values quoted from earlier work as cited in publication PMC6777988 (ACS infectious diseases, 2018).

Experiments:
C. parvum = conditions: combined with partial CpCDPK1 siRNA knockdown
Cryptosporidium = conditions: immunocompromised patients and malnourished children

Row | Structure (SMILES) | effect on proliferation of C. parvum parasites (C. parvum) | efficacy in patients (Cryptosporidium)
1 | CCOc1ccc2cc(-c3nn(CC4CCN(C)CC4)c4ncnc(N)c34)ccc2c1 [Compound 1294] | further inhibitory effects | 
2 | CCOc1ccc2cc(-c3nn(C(C)(C)C)c(N)c3C(N)=O)cnc2c1 [Compound 1517] | further inhibitory effects | 
3 | CC(=O)Oc1ccccc1C(=O)Nc1ncc([N+](=O)[O-])s1 [Nitazoxanide, nitazoxanide] |  | minimal efficacy
